Experimental data: patent US20040002465A1, “Polyene macrolide derivatives, use for vectoring molecules” (UNIVERSITE PIERRE ET MARIE CURIE, priority 1998, published 2004)
In brackets after ≈: the same amount, converted by molar mass.

What was measured:
[1] = tested on: ATCC 10261 Candida albicans; test: Antifungal activity, growth inhibition of Candida albicans culture; format: cell-based; conditions: concentration inducing 50% inhibition of strain growth; liquid Sabouraud medium, 24 hours at 30° C., spectrophotometry at 660 nm
Method: More particularly, each compound was incubated at different concentrations with a culture of ATCC 10261 Candida albicans (inoculum, […]) in liquid Sabouraud medium for 24 hours at 30° C. Cell growth was then measured by spectrophotometry at a wavelength of 660 nm.

[2] = tested on: 3T3 cells; test: Toxicity of AmA with or without antisense oligonucleotide, MTT cellular viability; conditions: 4 hours at 37° C.
[3] = tested on: 27-mer oligonucleotide (ODN) in 10% (v/v) foetal calf serum; test: Seric degradation of delivered oligonucleotide, gel autoradiography; conditions: +/− charge ratio 10, 10% (v/v) foetal calf serum, 37° C., up to 16 hours; versus non delivered ODN
Method: A 27-mer oligonucleotide (ODN) was rendered radioactive by labelling at the 5′ end with ^32P using a standard procedure (Pharmacia) using T4 polynucleotide kinase and ^32(γ)ATP. A small quantity of this ^32P labelled ODN was mixed with cold ODN. AmA was added in a concentration such that the +/− charge ratio was 10 and the complex was allowed to form at ambient temperature for 30 minutes. A sample containing no AmA constituted the control (non delivered ODN). ODN degradation was triggered at time 0 at 37° C. by adding 10% (v/v) foetal calf serum in which the enzymatic activity was essentially 3′-exonucleasic (Sirotkin, Cooley et al., 1978). At intervals, samples were removed for which the action of the enzymes was stopped by adding formamide and placing the tube in ice. The reaction wsa stopped after 4, 6, 8 and 16 hours of incubation with the serum. The samples were then migrated on a denaturing (7 M urea) 20% polyacrylamide gel.

[4] = tested on: 3T3 cells; test: Internalisation of FITC-labelled antisense oligonucleotide, confocal microspectrofluorimetry; format: cell-based; conditions: 4 hours
[5] = tested on: P-gp in NIH-MDR G185 cells (3T3 R); format: cell-based, human
[6] = tested on: MCF 7 cells; test: Internalisation of FITC-labelled anti-gene oligonucleotide; format: cell-based, human; conditions: charge ratio 5, compared with AmE, Lipofectine or free oligonucleotides

P-gp in NIH-MDR G185 cells (3T3 R), sequence (P08183 whole entry): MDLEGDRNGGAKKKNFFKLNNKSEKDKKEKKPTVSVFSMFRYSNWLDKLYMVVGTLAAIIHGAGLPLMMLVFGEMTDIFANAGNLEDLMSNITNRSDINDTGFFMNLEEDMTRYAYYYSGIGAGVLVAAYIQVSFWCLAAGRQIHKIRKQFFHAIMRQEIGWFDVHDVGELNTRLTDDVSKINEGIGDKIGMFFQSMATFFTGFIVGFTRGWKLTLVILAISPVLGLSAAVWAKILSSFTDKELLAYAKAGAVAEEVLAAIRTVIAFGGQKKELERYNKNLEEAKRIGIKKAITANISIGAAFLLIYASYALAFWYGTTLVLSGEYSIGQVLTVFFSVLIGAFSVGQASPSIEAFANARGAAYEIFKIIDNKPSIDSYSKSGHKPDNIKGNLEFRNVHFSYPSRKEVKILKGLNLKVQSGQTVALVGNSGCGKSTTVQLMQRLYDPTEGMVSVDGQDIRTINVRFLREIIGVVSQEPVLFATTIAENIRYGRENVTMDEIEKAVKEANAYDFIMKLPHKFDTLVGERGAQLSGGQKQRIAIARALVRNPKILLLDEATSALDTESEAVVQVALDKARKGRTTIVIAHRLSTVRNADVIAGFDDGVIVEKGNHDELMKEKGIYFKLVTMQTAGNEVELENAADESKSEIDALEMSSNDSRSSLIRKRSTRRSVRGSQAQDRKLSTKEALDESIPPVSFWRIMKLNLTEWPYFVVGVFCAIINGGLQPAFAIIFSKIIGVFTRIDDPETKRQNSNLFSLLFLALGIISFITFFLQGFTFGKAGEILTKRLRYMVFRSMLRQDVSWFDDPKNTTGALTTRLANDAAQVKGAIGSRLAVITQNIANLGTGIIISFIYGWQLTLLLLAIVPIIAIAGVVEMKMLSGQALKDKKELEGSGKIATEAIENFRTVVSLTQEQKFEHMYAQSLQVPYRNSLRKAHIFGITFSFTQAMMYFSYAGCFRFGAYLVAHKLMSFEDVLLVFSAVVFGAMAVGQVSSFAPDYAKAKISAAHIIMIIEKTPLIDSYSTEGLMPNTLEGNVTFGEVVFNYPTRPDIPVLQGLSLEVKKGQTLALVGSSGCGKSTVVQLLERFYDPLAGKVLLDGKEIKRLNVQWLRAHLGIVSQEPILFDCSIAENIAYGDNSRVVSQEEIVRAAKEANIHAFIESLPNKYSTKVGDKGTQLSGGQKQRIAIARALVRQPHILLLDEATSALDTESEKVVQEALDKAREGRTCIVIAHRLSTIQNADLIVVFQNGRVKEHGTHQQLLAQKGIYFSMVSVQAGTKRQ

Molecule “2-dimethylaminoethyl ester of amphotericin B [AMEE]” has an IC50 [1] of 0.08 µg/mL.
Work on CC1C=CC=CC=CC=CC=CC=CC=CC(OC2OC(C)C(O)C(N)C2O)CC2OC(O)(CC(O)CC(O)C(O)CCC(O)CC(O)CC(=O)OC(C)C(C)C1O)CC(O)C2C(=O)N1CCN(C)CC1 (stereo not drawn) [AMPA, Amphotericin B B-4-methylpiperizyne amide] yielded an IC50 [1] of 0.015 µg/mL (≈ 0.0149 µM).
CC1C=CC=CC=CC=CC=CC=CC=CC(OC2OC(C)C(O)C(N)C2O)CC2OC(O)(CC(O)CC(O)C(O)CCC(O)CC(O)CC(=O)OC(C)C(C)C1O)CC(O)C2C(=O)NCCc1ccccn1 (stereo not drawn) [AMPEA, Amphotericin B 2-(2-pyridyl)ethylamide] gave an IC50 [1] of 0.015 µg/mL (≈ 0.0146 µM).
“Amphotericin B 3-dimethylaminopropyl ester [AMPE]” showed an IC50 [1] of 0.10 µg/mL.
Molecule “Amphotericin B (N^2-lysyllysine methylester) amide [AMDLA]” has an IC50 [1] of 0.12 µg/mL.
Amphotericin B N1-sperminylamide [AMSA] was tested, and the IC50 [1] was 0.10 µg/mL.
In the case of “Amphotericin B dimethylaminopropylamide [AMA]”, the “concentration below which cell growth appears to have been stimulated” value ([2]; MTT) is reported as “below 10^−5 M”, the “concentration below which no toxicity was observed (cellular viability, MTT)” value ([2]; serum-free DMEM, AmA in the presence or absence of oligonucleotide) is reported as “below 2×10^−5 M” and the “seric degradation of the delivered oligonucleotide” value [3] is reported as “slowed that degradation”. The “intracellular distribution of fluorescence” value ([4]; nucleus versus cytoplasm) was “distributed homogeneously inside the cells”, the “internalisation of fluorescent oligonucleotide (fluorescence intensity of cells)” value ([4]; AmA 1×10^−5 M and 2×10^−5 M, compared with AmE, Lipofectine (20 μg/ml) or the oligonucleotides alone) was “much greater internalisation” and the “synthesis of P-gp, possible vector effect” value [5] was “did not itself inhibit synthesis of P-gp”. The “internalisation of fluorescent oligonucleotide (fluorescence intensity of cells)” value [6] was “much greater internalisation”.
Work on “Amphotericin B-2-(morpholyl)ethylamide [AMMEA]” yielded an IC50 [1] of 0.013 µg/mL.
“L-aspartate salt of OAMA [OAMA L-aspartate]” was tested, and the IC50 [1] was 0.17 µg/mL.
Molecule N-(1-piperdinepropionyl) AME [PAME] has an IC50 [1] of 0.15 µg/mL.
In the case of “N-(4-methyl-1-piperazinepropionyl) AMPA [PAMPA]”, the IC50 [1] is reported as 0.17 µg/mL.
With “N-(4-methyl-1-piperazinepropionyl)AME [PNAME]” the IC50 [1] was 0.16 µg/mL.
Work on “N-(Nα, Nα, Nα,Nε, Nε, Nε,-hexamethyl) AME [MLAME]” yielded an IC50 [1] of 0.15 µg/mL.
With “N-(N′-3-dimethylaminopropyl-succinimido) amphotericin B methyl ester [SAME]” the IC50 [1] was 0.125 µg/mL.
N-ornithyl-AMA [OAMA] gave an IC50 [1] of 0.15 µg/mL.
